{"source": "patent US6379959B1", "about": "“Metalocarboxypeptidase inhibitors and derived molecules used as antitumor agents” (Universitat Autonoma de Barcelona, priority 1996, dated 2002)", "key": {"[1]": {"system": "β2-microglobuline", "experiment": "Gene expression analysis by Northern transfer, β2-microglobuline probe", "format": "cell-based, human", "conditions": "12 days, Capan-1 (control 955)", "procedure": "To verify whether the PCI plays any role in signal transduction, studies of gene expression were carried out by Northern transfer. The probes were: β2-microglobulin, p53 and trypsin. The β2-microglobulin is a constitutive gene that is used as a sample loading control in the gel. p53 is a transcription factor which, among other functions, controls the state of the genomic DNA and the cell cycle (Bates, S. & Vousden, K. H. (1996) Curr. Opin. Genet. Develop., 6: 12-19). If the DNA is damaged, p53 induces its repair and, if it is excessively damaged, it provokes programmed cellular death (apoptosis). Trypsin is a marker of pancreatic cells of the acinar type. The trypsin is not expressed by all the tumoral cells and it is believed that it is expressed by the cells with metastatic power and/or invasive power (Fernández, E. et al., (1994) Cancer, 73: 2285-2295). The probes employed are described as follows:\nIn the first place, 3×10^6 cells of the human pancreatic adenocarcinoma cell line Capan-1 were placed in each one of the 12 flasks of 150 cm^2. […] They were maintained in culture for 12 days period, changing their medium every 4 days, adding fresh PCI. […]\nThe quantifying of the hybridized filters with the respective probes was done using a Betascope 601 blot Analyzer counter (Betagen, USA). […]"}, "[2]": {"system": "cell line Capan-1", "experiment": "Studies of PCI disappearance from the culture medium", "format": "cell-based, human", "conditions": "50 μg/mL flask, 24 h; CPA inhibitory activity and ELISA", "procedure": "The studies of PCI disappearance were carried out in the cell line Capan-1 by employing various concentrations of PCI.\nIn three small culture flasks (of 25 cm^2), 5×10^5 cells were placed in each and they were cultivated in medium DMEM+10%FBS until the moment in which, through microscope observation, it could be seen that they had reached 75% of confluence. At this moment, the medium was removed and was substituted by new DMEM+10%FBS (50 μg/mL flask) and by medium with 200 μg/mL of PCI (flask 200 μg/mL). The three flasks were cultivated for a further 24 h. From each of these, samples of […] of culture medium were extracted at half hour intervals. In each of these samples, the existing concentration of PCI was determined by employing two methods (described in the bibliography cited in point 4.A.):\nTests of carboxypeptidase A inhibitory activity\nIn such tests, samples taken from the control flask at the same intervals were used as blanks.\nOne of the ELISAs that was done with the samples coming from the 200 μg/mL flask was carried out under special conditions in the first step (fixation of the antigens); concretely, by using a concentration of 0.5 M NaCl."}, "[3]": {"system": "tumors of human pancreatic adenocarcinoma cell line Capan-1", "experiment": "Tests with athymic mice, subcutaneous Capan-1 tumors", "format": "in vivo, nude mice", "parameters": "key to SGD class: SGD < 1 expressed as −; >expressed +; <3 expressed as +++", "conditions": "for Duplication time (days) of the tumor: daily 100 μL into the tumor, 32 days (control 4.32)", "procedure": "With the aim of evaluating the sensitivity to PCI of induced human tumors, studies were carried out with nude mice. Human pancreatic adenocarcinoma cells Capan-1 were inoculated in these mice subcutaneously and once the tumor reached a minimum size of 3×3 mm2, a daily treatment begun, also subcutaneous, with different doses of PCI for 32 days. The following materials were employed:\nIn order to determine whether the PCI had any effect on tumoral growth, the growth of subcutaneous tumors induced in nude mice, whether treated with PCI or not, was followed over a period of time. The detailed protocol was the following:\n1. 10^7 Capan-1 cells were dissolved in 100 μL of DMEM and injected subcutaneously to the mice. 19 mice were inoculated and divided into 4 groups.\nControl group: consisting of 5 mice. They were treated with PBS.\nGroup 1: also consisting of 5 mice. They were treated with 0.11 mg/mL of PCI dissolved in PBS.\nGroup 2: consisting of 5 mice to which a treatment with a dose of 0.6 mg/mL of PCI was applied.\nGroup 3: consisting of 4 mice for which, in this case, the dose of PCI was 1.2 mg/mL of PCI.\n2. 12 days after the inoculation of the cells, the daily treatment with PBS or PCI by direct injection in the tumor of 100 μL of such solutions was started. At this moment, the tumors were palpable and measured, at least, 2 mm of diameter.\n3. During the treatment, the size of the tumor was determined every two days using a Vernier calibrator which made it possible to measure the size of the tumor in all its dimensions. The volume of the tumor was determined by means of the following formula: [formula]\nAs the volumes of the tumors became known, the relative growth of such tumors was calculated every 7 days using the following formula: [formula]\nOnce the treatment had finished, the duplication time of the tumor (td) was calculated for each treatment with the following formula: [formula]\nwhere d corresponds to the days of treatment, Vt to the volume of the tumor at the end of the treatment and V0 to the volume at the beginning of the treatment."}, "[4]": {"conditions": "Dose 0.55 (mg(kg/day), s.c., days 0-32)"}, "[5]": {"conditions": "Dose 3 (mg(kg/day), s.c., days 0-32)"}, "[6]": {"conditions": "Dose 6 (mg(kg/day), s.c., days 0-32)"}}, "note": "Positions of bridges follow the written chain, without caps; N, C: chain ends. No end group written: not given here."}
{"substance": "PCI: potato carboxypeptidase inhibitor, isoform IIa, obtained by recombinant DNA techniques in E. coli (SEQ ID NO.2) (EQHADPICNKPCKTHDDCSGAWFCQACWNSARTCGPYVG; disulfide 12-27, 18-34, 8-24)", "values": [{"measurement": "beta counts, β2-microglobuline probe", "setting": "[1]; 1 mg/mL PCI", "result": 2183}, {"measurement": "beta counts, β2-microglobuline probe", "setting": "[1]; 10 mg/mL PCI", "result": 6287}, {"measurement": "internalization (disappearance of PCI from the culture medium)", "setting": "[2]", "result": "clearly internalized by the cells"}, {"measurement": "Duplication time (days) of the tumor", "setting": "[3]; 0.11 mg/mL PCI", "result": 9.06, "unit": "days"}, {"measurement": "Duplication time (days) of the tumor", "setting": "[3]; 0.6 mg/mL PCI", "result": 19.49, "unit": "days"}, {"measurement": "Duplication time (days) of the tumor", "setting": "[3]; 1.2 mg/mL PCI", "result": 5.78, "unit": "days"}, {"measurement": "Optimal T/C %", "setting": "[3]; [4]", "result": 39.79, "unit": "%"}, {"measurement": "SGD (Td treated- Td control/Td control)", "setting": "[3]; [4]", "result": 1.09}, {"measurement": "SGD class", "setting": "[3]; [4]", "result": "+"}, {"measurement": "Optimal T/C %", "setting": "[3]; [5]", "result": 21.36, "unit": "%"}, {"measurement": "SGD (Td treated- Td control/Td control)", "setting": "[3]; [5]", "result": 3.51}, {"measurement": "SGD class", "setting": "[3]; [5]", "result": "+++ (<3 expressed as +++)"}, {"measurement": "Optimal T/C %", "setting": "[3]; [6]", "result": 69.4, "unit": "%"}, {"measurement": "SGD (Td treated- Td control/Td control)", "setting": "[3]; [6]", "result": 0.34}, {"measurement": "SGD class", "setting": "[3]; [6]", "result": "− (SGD < 1 expressed as −)"}, {"measurement": "days of treatment until tumors start bleeding in the process of injection", "setting": "[3]; animals treated with PCI (control three days)", "result": 8, "unit": "days"}, {"measurement": "activity in the reduction of the growth of the tumors", "setting": "[3]; dose of 0.11 mg/mL", "result": "moderate activity (T/C < 50% moderate activity)"}, {"measurement": "duplication time of the tumor relative to the control tumors", "setting": "[3]; dose of 0.11 mg/mL of PCI", "result": "twice as high"}, {"measurement": "activity in the reduction of the growth of the tumors", "setting": "[3]; dose of PCI of 0.6 mg/mL", "result": "significant activity (T/C < 25%, significant activity)"}, {"measurement": "duplication time of the tumor relative to the control group", "setting": "[3]; doses of 0.6 mg/mL", "result": 4.5, "unit": "times"}]}
